Results as given in patent US10897901B2, “Herbicidal composition” (FMC Corporation, priority 2007, dated 2021).

Key:
Format in all cases: in vivo
[1] = tested on: Smooth Crabgrass (Digitaria ischaemum); test: Example 1 post-emergent turf plot test, 3 leaf/2 tiller crabgrass
Experimental: (§1) The experimental design used randomized plots with post-emergent treatment and three replications per test trial. The size of each experimental plot was 4 feet by 6 feet. The application of each test composition was performed with pressurized back-pack sprayers, calibrated to spray 200 gallons per acre. Test compositions containing sulfentrazone (DISMISS™ Turf Herbicide), quniclorac, (FACET® 75 DF herbicide) or a mixture of sulfentrazone and quinclorac in a 1:3 ratio, prepared as described above, were diluted with water to provide the appropriate test rate concentrations.
(§2) The control of weeds was evaluated in each experimental plot from 7 to 41 days after treatment (DAT) of each test rate. The results, shown as an average of the replications, were compared with results observed in untreated control plots in the same trials.

[2] = tested on: Field Violet (Viola arvensis); test: Example 1 post-emergent turf plot test, violet
Experimental: as §1, §2

[3] = tested on: White Clover (Trifolium repens); test: Example 1 post-emergent turf plot test, clover
Experimental: as §1, §2

[4] = tested on: Yellow Nutsedge (Cyperus esculentus); test: Example 1 post-emergent turf plot test, nutsedge
Experimental: as §1, §2

[5] = tested on: White Clover (Trifolium repens); test: Example 2 post-emergent turf plot test, clover
Experimental: as §1, with “quinclorac,” for “quniclorac,”, “one to three” for “1:3”
(§3) The control of weeds was evaluated in each experimental plot from 1 to 27 days after treatment (DAT) of each test rate. The results, shown as an average of the replications, were compared with results observed in untreated control plots in the same trials.

[6] = tested on: Blackseed Plantain (Plantago rugelii); test: Example 2 post-emergent turf plot test, plantain
Experimental: as §1, with “quinclorac,” for “quniclorac,”, “one to three” for “1:3”
as §3

[7] = tested on: Hemp Sesbania (Sesbania exaltata); test: Example 4 post-emergence greenhouse pot test, hemp sesbania
Experimental: (§4) Test compositions containing sulfentrazone (75 DF formulation), quniclorac, (DRIVE® 75 DF Herbicide) or mixtures of sulfentrazone and quinclorac at ratios of 1:1 to 1:5, were diluted with water to provide the appropriate test rate concentrations. A nonionic surfactant (0.25%) was added to each test solution. The test weeds include crabgrass (Digitaria sp), Chickweed (Stellaria media), Hemp Sesbania (Sesbania exaltata), Kochia (Kochia scoparia), Ivyleaf Morningglory (Ipomoea hederacea), Redroot Pigweed (Amaranthus retroflexus) and yellow nutsedge (Cyperus esculentusi).
(§5) For post-emergence testing, three disposable 3 inch square pots for each rate of application of each herbicide were filled with a soil, comprised of peat moss, vermiculite, bark ash, pine bark, limestone and a wetting agent, to which 8 to 10 seeds were planted. The pots were placed in a greenhouse and watered daily, thus allowing the seeds to germinate and the foliage to develop for 22 days, 3 months for Kochia.
(§6) Pots designated for treatment were placed on a conveyor belt and the conveyor belt fed under a spray nozzle mounted about ten inches above the foliage. The spray of herbicidal solution was commenced and once stabilized; the pots were passed under the spray at a speed to receive a coverage equivalent of 30 gallons per acre. The application rates are those shown in Table 4 below for the individual herbicidal solutions and the mixture of sulfentrazone and quinclorac. The post-emergence pots were immediately placed in the green-house and not watered until 24 hours after treatment with the test solution. Thereafter they were regularly watered at ground level. The control of weeds was evaluated in each experimental test from 2 to 20 days after treatment (DAT). The results, shown as an average of the replications, were compared with results observed in untreated control pots in the same tests.
(§7) Percent control was determined by a method similar to the 0 to 100 rating system disclosed in “Research Methods in Weed Science,” 2nd ed., B. Truelove, Ed.; Southern Weed Science Society; Auburn University, Auburn, Ala., 1977.

Kochia (Kochia scoparia) = test: Example 4 post-emergence greenhouse pot test, kochia
Experimental: as §4, §5, §6, §7

[8] = tested on: Redroot Pigweed (Amaranthus retroflexus); test: Example 4 post-emergence greenhouse pot test, pigweed
Experimental: as §4, §5, §6, §7

[9] = tested on: yellow nutsedge (Cyperus esculentusi); test: Example 4 post-emergence greenhouse pot test, nutsedge
Experimental: as §4, §5, §6, §7

Measured: Percent Control

Cc1nn(-c2cc(NS(C)(=O)=O)c(Cl)cc2Cl)c(=O)n1C(F)F [A, N-[2,4-dichloro-5-[4-(difluoromethyl)-4,5-dihydro-3-methyl-5-oxo-1H-1,2,4-triazol-1-yl]phenyl]methanesulfonamide]
95%: Kochia (Kochia scoparia); 0.25 lb ai/acre, 14 DAT | [8]; 0.25 lb ai/acre, 7 DAT | [9]; 0.25 lb ai/acre, 20 DAT
90%: [7]; 0.25 lb ai/acre, 14 DAT | [7]; 0.25 lb ai/acre, 20 DAT | [8]; 0.25 lb ai/acre, 20 DAT
76%: [2]; 0.57 lb ai/acre, 21 DAT
70%: [1]; 0.57 lb ai/acre, 7 DAT | [2]; 0.57 lb ai/acre, 28 DAT | [7]; 0.25 lb ai/acre, 2 DAT | Kochia (Kochia scoparia); 0.25 lb ai/acre, 7 DAT
60%: [9]; 0.25 lb ai/acre, 7 DAT
85%: [7]; 0.25 lb ai/acre, 7 DAT | [9]; 0.25 lb ai/acre, 14 DAT
99%: Kochia (Kochia scoparia); 0.25 lb ai/acre, 20 DAT | [8]; 0.25 lb ai/acre, 14 DAT
80%: [8]; 0.25 lb ai/acre, 2 DAT
50%: [4]; 0.57 lb ai/acre, 7 DAT
74%: [5]; 0.57 lb ai/acre, 14 DAT
59%: [3]; 0.57 lb ai/acre, 7 DAT | [3]; 0.57 lb ai/acre, 21 DAT
100%: [6]; 0.57 lb ai/acre, 7 DAT | [6]; 0.57 lb ai/acre, 14 DAT | [6]; 0.57 lb ai/acre, 21 DAT
71%: [1]; 0.57 lb ai/acre, 41 DAT
45%: [5]; 0.57 lb ai/acre, 7 DAT
91%: [4]; 0.57 lb ai/acre, 28 DAT
52%: [3]; 0.57 lb ai/acre, 28 DAT
86%: [1]; 0.57 lb ai/acre, 21 DAT
64%: [2]; 0.57 lb ai/acre, 7 DAT
68%: [5]; 0.57 lb ai/acre, 21 DAT
25%: [9]; 0.25 lb ai/acre, 2 DAT
63%: [3]; 0.57 lb ai/acre, 14 DAT
75%: [1]; 0.57 lb ai/acre, 28 DAT | [2]; 0.57 lb ai/acre, 14 DAT | [2]; 0.57 lb ai/acre, 41 DAT | [4]; 0.57 lb ai/acre, 14 DAT
89%: [4]; 0.57 lb ai/acre, 21 DAT
78%: [1]; 0.57 lb ai/acre, 14 DAT
10%: Kochia (Kochia scoparia); 0.25 lb ai/acre, 2 DAT

O=C(O)c1c(Cl)ccc2cc(Cl)cnc12 [B, 3,7-dichloro-8-quinolinecarboxylic acid]
87%: [5]; 0.75 lb ai/acre, 14 DAT
5%: [7]; 0.25 lb ai/acre, 14 DAT | Kochia (Kochia scoparia); 0.25 lb ai/acre, 14 DAT | Kochia (Kochia scoparia); 0.25 lb ai/acre, 20 DAT | Kochia (Kochia scoparia); 0.75 lb ai/acre, 20 DAT
78%: [1]; 0.75 lb ai/acre, 21 DAT
67%: [1]; 0.75 lb ai/acre, 28 DAT
43%: [2]; 0.75 lb ai/acre, 7 DAT | [2]; 0.75 lb ai/acre, 21 DAT
41%: [2]; 0.75 lb ai/acre, 28 DAT
75%: [1]; 0.75 lb ai/acre, 7 DAT
60%: [5]; 0.75 lb ai/acre, 7 DAT | [7]; 0.5 lb ai/acre, 20 DAT | [7]; 0.75 lb ai/acre, 20 DAT | [7]; 1.0 lb ai/acre, 20 DAT
83%: [6]; 0.75 lb ai/acre, 7 DAT
82%: [5]; 0.75 lb ai/acre, 21 DAT
100%: [4]; 0.75 lb ai/acre, 7 DAT | [6]; 0.75 lb ai/acre, 14 DAT | [6]; 0.75 lb ai/acre, 21 DAT
55%: [1]; 0.75 lb ai/acre, 14 DAT
50%: [3]; 0.75 lb ai/acre, 7 DAT | [3]; 0.75 lb ai/acre, 14 DAT | [3]; 0.75 lb ai/acre, 21 DAT | [7]; 1.25 lb ai/acre, 20 DAT
46%: [2]; 0.75 lb ai/acre, 14 DAT
13%: [4]; 0.75 lb ai/acre, 28 DAT
63%: [3]; 0.75 lb ai/acre, 28 DAT
57%: [1]; 0.75 lb ai/acre, 41 DAT
40%: [4]; 0.75 lb ai/acre, 14 DAT
10%: [4]; 0.75 lb ai/acre, 21 DAT | [7]; 0.5 lb ai/acre, 7 DAT | [7]; 0.75 lb ai/acre, 14 DAT | [7]; 1.0 lb ai/acre, 2 DAT | [7]; 1.0 lb ai/acre, 7 DAT | [7]; 1.25 lb ai/acre, 14 DAT | Kochia (Kochia scoparia); 0.75 lb ai/acre, 14 DAT | Kochia (Kochia scoparia); 1.0 lb ai/acre, 14 DAT | Kochia (Kochia scoparia); 1.25 lb ai/acre, 14 DAT | Kochia (Kochia scoparia); 1.25 lb ai/acre, 20 DAT | [8]; 0.25 lb ai/acre, 2 DAT | [8]; 0.25 lb ai/acre, 7 DAT | [8]; 0.25 lb ai/acre, 14 DAT | [8]; 0.25 lb ai/acre, 20 DAT | [8]; 1.25 lb ai/acre, 2 DAT | [8]; 1.25 lb ai/acre, 7 DAT | [8]; 1.25 lb ai/acre, 14 DAT | [8]; 1.25 lb ai/acre, 20 DAT
0%: [7]; 0.25 lb ai/acre, 2 DAT | [7]; 0.25 lb ai/acre, 7 DAT | [7]; 0.5 lb ai/acre, 2 DAT | [7]; 0.75 lb ai/acre, 2 DAT | [7]; 0.75 lb ai/acre, 7 DAT | [7]; 1.25 lb ai/acre, 2 DAT | [7]; 1.25 lb ai/acre, 7 DAT | Kochia (Kochia scoparia); 0.25 lb ai/acre, 2 DAT | Kochia (Kochia scoparia); 0.25 lb ai/acre, 7 DAT | Kochia (Kochia scoparia); 0.5 lb ai/acre, 2 DAT | Kochia (Kochia scoparia); 0.5 lb ai/acre, 7 DAT | Kochia (Kochia scoparia); 0.75 lb ai/acre, 2 DAT | Kochia (Kochia scoparia); 0.75 lb ai/acre, 7 DAT | Kochia (Kochia scoparia); 1.0 lb ai/acre, 2 DAT | Kochia (Kochia scoparia); 1.0 lb ai/acre, 7 DAT | Kochia (Kochia scoparia); 1.25 lb ai/acre, 2 DAT | Kochia (Kochia scoparia); 1.25 lb ai/acre, 7 DAT | [8]; 0.5 lb ai/acre, 2 DAT | [8]; 0.5 lb ai/acre, 7 DAT | [8]; 0.5 lb ai/acre, 14 DAT | [8]; 0.5 lb ai/acre, 20 DAT | [8]; 0.75 lb ai/acre, 2 DAT | [8]; 0.75 lb ai/acre, 7 DAT | [8]; 0.75 lb ai/acre, 14 DAT | [8]; 0.75 lb ai/acre, 20 DAT | [8]; 1.0 lb ai/acre, 2 DAT | [8]; 1.0 lb ai/acre, 7 DAT | [8]; 1.0 lb ai/acre, 14 DAT | [8]; 1.0 lb ai/acre, 20 DAT | [9]; 0.25 lb ai/acre, 2 DAT | [9]; 0.25 lb ai/acre, 7 DAT | [9]; 0.25 lb ai/acre, 14 DAT | [9]; 0.25 lb ai/acre, 20 DAT | [9]; 0.5 lb ai/acre, 2 DAT | [9]; 0.5 lb ai/acre, 7 DAT | [9]; 0.5 lb ai/acre, 14 DAT | [9]; 0.5 lb ai/acre, 20 DAT | [9]; 0.75 lb ai/acre, 2 DAT | [9]; 0.75 lb ai/acre, 7 DAT | [9]; 0.75 lb ai/acre, 14 DAT | [9]; 0.75 lb ai/acre, 20 DAT | [9]; 1.0 lb ai/acre, 2 DAT | [9]; 1.0 lb ai/acre, 7 DAT | [9]; 1.0 lb ai/acre, 14 DAT | [9]; 1.0 lb ai/acre, 20 DAT | [9]; 1.25 lb ai/acre, 2 DAT | [9]; 1.25 lb ai/acre, 7 DAT | [9]; 1.25 lb ai/acre, 14 DAT | [9]; 1.25 lb ai/acre, 20 DAT
20%: [7]; 0.25 lb ai/acre, 20 DAT | [7]; 0.5 lb ai/acre, 14 DAT | [7]; 1.0 lb ai/acre, 14 DAT | Kochia (Kochia scoparia); 0.5 lb ai/acre, 14 DAT | Kochia (Kochia scoparia); 0.5 lb ai/acre, 20 DAT | Kochia (Kochia scoparia); 1.0 lb ai/acre, 20 DAT
37%: [2]; 0.75 lb ai/acre, 41 DAT
